In PMC8453901, “GLPG1205, a GPR84 Modulator: Safety, Pharmacokinetics, and Pharmacodynamics in Healthy Subjects” (Clinical Pharmacology in Drug Development, 2021):
Like-named read-outs stand apart in the source and are kept apart here.

Legend:
[1] = Study 1 SAD part: plasma pharmacokinetics after single oral doses; assay type: in vivo, human; settings: for half-life / Tmax / Cmax / AUC(0-inf) / AUC / concentration at 24 h: male, human, plasma, oral; for AUC: read-out: AUC0‐24h; for concentration at 24 h: read-out: C24h
Procedure: GLPG1205 or matching placebo were administered as an oral nanosuspension in the morning in a fed condition as an outpatient. For both the single ascending doses (SADs) and multiple ascending doses (MADs) parts of the study, subjects attended a screening visit (21 to 2 days before first study drug administration) and a follow‐up visit (7 to 10 days after the last dose).
The SAD part of the study comprised 16 healthy male subjects in 2 alternating cohorts (A and B, n = 8 each). Cohort A received GLPG1205 10, 90, 400, and 800 mg or matching placebo, and cohort B received GLPG1205 30, 200, and 600 mg or matching placebo. Subjects were randomly assigned to receive GLPG1205 or matching placebo in a 3:1 ratio once at the beginning of the study. In addition, subjects in cohorts A and B were randomized to a treatment sequence. […] An interval of at least 3 days was enforced between 2 dose levels (between cohort A and B). Subjects were kept in‐house from the evening of day –1 to ≈26 hours after dosing (morning of day 2).
In the SAD part of study 1, blood samples (2 mL) for PK assessments were obtained before dosing and at multiple time points on the day of study drug administration (before dosing and 0.5, 1, 2, 4, 6, 8, and 12 hours after dosing) and at 24, 48, and 72 hours after dosing. The predose sample for the next dose level was also used in PK analysis (168 hours after dosing). […] In the MAD part of study 1, blood samples (2 mL) were obtained on days 1, 2, 4, 5, 6, 8, 10, 12, 14, 15, 16, 17, and 18 and at follow‐up (approximately 7 to 10 days after the last dose). These PK blood samples were taken after dosing (1, 2, 4, 6, 8, 12, and 24 hours) on day 1; before dosing on days 4, 6, 8, and 10; and after dosing (1, 2, 4, 6, 8, 12, 24, 72, and 96 hours) on day 14. The following additional PK blood samples were also taken: cohort C, before dosing on day 5; and cohorts D and E, before dosing on day 12. Urine samples were obtained from fractions collected over 6‐ or 12‐hour periods after dosing on days –1, 1, 2, 13, 14, and 15; samples obtained on days –1 and 13 were for cytochrome P450 (CYP) induction analysis only. In study 2, blood samples (2 mL) were obtained on days 1, 2, 5, 7, 10, 14, 15, 17, and 20 and at follow‐up (approximately 21 days after end of study medication administration). Blood samples were taken before dosing and at 1, 2, 4, 6, 8, 12, and 24 hours after drug administration on days 1 and 14 and before dosing on other sampling days.
Blood samples were immediately chilled (ice bath), and the plasma was separated by centrifugation (4°C for 10 minutes at ≈1500 g) within 30 minutes of blood collection.
GLPG1205 plasma concentrations were determined using a validated liquid chromatography with tandem mass spectrometry method. After a protein precipitation with methanol, a chromatographic separation was performed on a Kinetex C18 column (50×3.0 mm, 2.6 μm; Phenomenex, Torrance, California) set at 40°C by using a Nexera high‐performance liquid chromatography (HPLC) system (Shimadzu, Kyoto, Japan) or an Infinity HPLC system (Agilent Technologies, Diegem, Belgium) in isocratic elution mode. A QTRAP6500, QTRAP4000, or API4000 mass spectrometer (AB Sciex, Nieuwerkerk aan den Ijssel, The Netherlands) equipped with a TurboIonSpray probe operated in the multiple reaction monitoring in positive mode was used for quantification. The calibration curves in plasma were linear over the range of 1 to 1000 ng/mL with 1/x^2 as weighting factor. The limit of quantification of the assay in the plasma samples was set at 1 ng/mL.
PK calculations were performed using Phoenix WinNonlin 6.2 (Pharsight Corporation, Palo Alto, California). […] AUC0‐inf was calculated from the area under the plasma concentration‐time curve from time 0 until the time corresponding with the last observed quantifiable concentration + Ct/λz, where Ct was the last observed quantifiable concentration and λz the first‐order terminal rate constant. […]

[2] = Safety across both studies and all dose groups; assay type: in vivo, human; settings: both studies
Procedure: Safety and tolerability were assessed on the basis of adverse events (AEs), which were monitored throughout both studies. Additional safety assessments included vital signs (including supine [and standing in study 2] heart rate, systolic and diastolic blood pressure, and oral body temperature), 12‐lead electrocardiogram (ECG), clinical laboratory tests (hematology, coagulation [study 2 only], serum/plasma chemistry, urinalysis, urine drug screen, serology, and alcohol breath test), and a comprehensive physical examination. In the SAD part of study 1, clinical laboratory tests, physical examination, and vital signs were assessed at the screening visit, at the time of dosing (0 hours after dose), 24 hours after dosing and at follow‐up (7 to 10 days after the final dose). Vital signs were additionally observed 2 hours after dosing, and the 12‐lead ECG was additionally completed at 1, 2, 6, 8, and 12 hours after dosing. In the MAD part of study 1, all additional safety assessments were performed at screening; days 1, 2, 8, 14, and 15; and at follow‐up. In study 2, additional safety assessments were performed at screening (between 21 and 2 days before the first study drug administration); days 1, 2, 5, 10, 14, 15, and 20 (clinical laboratory tests were not performed on day 20); at early discontinuation; and at follow‐up. For study 2, renal function tests (measurement of estimated creatinine clearance rate using the Cockcroft‐Gault equation) were also included in the clinical laboratory tests for safety assessment.
In both studies, the safety analysis was descriptive and focused on changes from baseline and treatment‐emergent findings.

[3] = single 10 mg, arithmetic mean (CV%)
[4] = single 30 mg, arithmetic mean (CV%)
[5] = single 90 mg, arithmetic mean (CV%)
[6] = single 200 mg, arithmetic mean (CV%)
[7] = single 400 mg, arithmetic mean (CV%)
[8] = single 600 mg, arithmetic mean (CV%)
[9] = single 800 mg, arithmetic mean (CV%)

In the case of `O=c1nc(OC[C@@H]2COCCO2)cc2n1CCc1cc(C#CC3CC3)ccc1-2` [GLPG1205, 9‐cyclopropylethynyl‐2‐((S)‐1‐[1,4]dioxan‐2‐ylmethoxy)‐6,7‐dihydropyrimido[6,1‐a]isoquinolin‐4‐one], the half-life ([1]; after single administration, 10 to 800 mg, read-out: arithmetic mean apparent terminal half-life (t1/2,λz) range) was 30.1 to 140 h, the Tmax ([1]; after single administration, 10 to 800 mg, read-out: median tmax range) was 2 to 4 h and the Cmax [1, 3] was 94.2 ng/mL. The AUC(0-inf) ([1]; single 10 mg, arithmetic mean (CV%), N = 3) was 3310 ng·h/mL, the AUC [1, 3] was 1330 ng·h/mL and the concentration at 24 h [1, 3] was 39.8 ng/mL. It also gave a half-life ([1]; single 10 mg, arithmetic mean (CV%), read-out: t1/2,λz (converted)) of 32.2 h, a Cmax [1, 4] of 284 ng/mL and an AUC(0-inf) ([1]; single 30 mg, arithmetic mean (CV%), N = 4) of 11500 ng·h/mL. It also gave a half-life ([1]; single 30 mg, arithmetic mean (CV%), N = 5, read-out: t1/2,λz (converted)) of 30.1 h, an AUC [1, 4] of 4470 ng·h/mL and a concentration at 24 h [1, 4] of 144 ng/mL. The Tmax ([1]; single 30 mg, median (minimum-maximum), read-out: tmax) was 4 h, the Cmax [1, 5] was 890 ng/mL and the AUC(0-inf) ([1]; single 90 mg, arithmetic mean (CV%), N = 4) was 52300 ng·h/mL. For the same compound, the AUC [1, 5] was 14300 ng·h/mL, the concentration at 24 h [1, 5] was 511 ng/mL and the half-life ([1]; single 90 mg, arithmetic mean (CV%), read-out: t1/2,λz (converted)) was 57.7 h. The Tmax ([1]; single 90 mg, median (minimum-maximum), read-out: tmax) was 4 h, the Cmax [1, 6] was 2200 ng/mL and the AUC(0-inf) ([1]; single 200 mg, arithmetic mean (CV%), N = 4) was 120000 ng·h/mL. The half-life ([1]; single 200 mg, arithmetic mean (CV%), N = 5, read-out: t1/2,λz (converted)) was 54.3 h, the AUC [1, 6] was 35800 ng·h/mL and the concentration at 24 h [1, 6] was 1260 ng/mL. For the same compound, the Tmax ([1]; single 200 mg, median (minimum-maximum), read-out: tmax) was 3 h, the Cmax [1, 7] was 3390 ng/mL and the AUC [1, 7] was 58000 ng·h/mL. The concentration at 24 h [1, 7] was 2150 ng/mL, the half-life ([1]; single 400 mg, arithmetic mean (CV%), read-out: t1/2,λz (converted)) was 92.4 h and the AUC(0-inf) ([1]; single 400 mg, arithmetic mean, N = 2) was 224000 ng·h/mL. It also gave a Tmax ([1]; single 400 mg, median (minimum-maximum), read-out: tmax) of 4 h, a Cmax [1, 8] of 5530 ng/mL and a half-life ([1]; single 600 mg, arithmetic mean (CV%), N = 3, read-out: t1/2,λz (converted)) of 75 h. The AUC [1, 8] was 94000 ng·h/mL, the concentration at 24 h [1, 8] was 3410 ng/mL and the Tmax ([1]; single 600 mg, median (minimum-maximum), read-out: tmax) was 4 h. The Cmax [1, 9] was 7500 ng/mL, the AUC [1, 9] was 130000 ng·h/mL and the concentration at 24 h [1, 9] was 5000 ng/mL. For the same compound, the half-life ([1]; single 800 mg, arithmetic mean, N = 2, read-out: t1/2,λz (converted)) was 140 h, the Tmax ([1]; single 800 mg, median (minimum-maximum), read-out: tmax) was 4 h and the dose-proportionality of exposure ([1]; single doses between 10 and 800 mg) was “did not markedly deviate from dose‐proportionality”. For the same compound, the “ECG and vital signs” value [2] was “no clinically significant trends”, the “deaths or serious AEs” value [2] was “No deaths or serious AEs occurred” and the “subjects with headache (TEAE)” value ([2]; all GLPG1205 dose groups) was 17 subjects. For the same compound, the “subjects with nausea (TEAE)” value ([2]; all GLPG1205 dose groups) was 12 subjects and the “subjects with treatment-emergent AEs” value ([2]; all GLPG1205 dose groups) was 44 subjects.
